{
  "source": "patent US10730892B2",
  "about": "“Homoallylamines as formaldehyde-responsive triggers” (The Regents of the University of California, priority 2015, dated 2020)",
  "key": {"[1]": {"assay": "Fluorescence properties of compounds 3, 4, 5 and FP1 (Table 1)", "format": "physicochemical", "description": "Such red-shifted fluorophores are desirable because of low autofluorescence, minimal phototoxicity, and negligible interference from biomolecules when employed in live cell imaging. […] In the presence of FA, a reversible condensation event yielded an iminium intermediate which can undergo a charge-promoted [3,3]-sigmatropic rearrangement-hydrolysis sequence to expel the aryl nitro group and afford a highly fluorescent indole-3-carboxaldehyde product (ΦF=0.11) (Table 1). Of note, the aldehyde is strategically positioned at C3 such that after the reaction cascade, the N1 lone pair electrons can delocalize into the π-system rather than quench fluorescence via an acceptor-excited PeT (a-PeT) pathway. In this regard, silicon rhodol 3, without the carboxaldehyde, is non-fluorescent (Table 1)."}, "[2]": {"conditions": "for fold increase in fluorescence intensity: 3 h", "method": "All experiments were performed at 37° C. for 3 h. Time points on graphs a-b are recorded every 15 min. The time points for graphs c-d represent every 30 min.\nAll buffers used for pH titrations were prepared in deionized water and brought to the appropriate pH with aqueous HCl or NaOH. The buffers used were 50 mM glycine (pH range 2.00-3.50), 50 mM NaOAc (pH range 4.00-5.60), 50 mM MES (pH range 5.60-6.80), 50 mM HEPES (pH range 6.80-8.20), 50 mM Tris (pH range 8.20-9.50) and 50 mM glycine (pH range 9.50-10.40). A 10 mM stock solution of formaldehyde for in vitro titration experiments was prepared by heating a suspension of paraformaldehyde (>88% w/w, 17.6 mg, 0.50 mmol, TCI, lot # NXR2B) in phosphate buffered saline (PBS) buffered to pH 7.4 (50 mL) at 88° C. for 1 hr. The solution was cooled to room temperature and filtered through a 0.22 μm syringe filter (Millex).\n(§1) Nuclear magnetic resonance (NMR) spectra were recorded on Varian 400 or 500 MHz spectrometers at 25° C. Chemical shifts are reported in ppm (δ) and are referenced to residual protic peaks. The following abbreviations are used to describe coupling constants: singlet (s), doublet (d), triplet (t), quartet (q), doublet doublet (dd), doublet triplet (dt), doublet quartet (dq), doublet doublet triplet (ddt), multiplet (m), and broad singlet (bs). IR spectra were recorded with a PerkinElmer Spectrum Two infrared (IR) spectrometer. High-resolution mass spectra were acquired with a Waters Q-TOF Ultima ESI mass spectrometer and a Waters Synapt G2-Si ESI/LC-MS mass spectrometer. UV-visible spectra were recorded on a Cary 60 spectrometer. Fluorescence spectra were acquired on a QuantaMaster-400 scanning spectrofluorometer with micro fluorescence quartz cuvettes (Science Outlet). Flow cytometry was performed on a BD Biosciences LSR II (San Jose, Calif., USA), and the data were analyzed as described using FACSDiva software.\n(§2) In addition to its ability to crosslink biomolecules, FA is cytotoxic through the induction of oxidative stress (Zararsiz et al., Cell Biochem. Fund. 2007, 25:413)."}, "[3]": {"method": "Time points on graph are 0, 30, 60, 90, 120, 150, and 180 min. […] Bars represent normalized fold-changes in response to treatment with each analyte listed at 1 mM for 3 hrs.\nas §2"}, "HEK293TN cells": {"test_system": "HEK293TN cells", "conditions": "5 mM FA, 37° C., 3 hrs", "method": "as §1\n(§3) HEK293TN cells were obtained from Prof. Paul Hergenrother (UIUC, Chemistry) and cultured in phenol-red free Dulbecco's modified eagle medium (DMEM, Corning) supplemented with 10% fetal bovine serum (FBS, Sigma Aldrich), and 1% penicillin/streptomycin (Corning). Neuroscreen-1 cells were obtained from Prof. Kai Zhang (UIUC, Biochemistry) and cultured in Ham's F-12K medium (Sigma Aldrich) supplemented with 15% horse serum (Hyclone), 2.5% fetal bovine serum (FBS, Sigma Aldrich), and 1% penicillin/streptomycin (Corning). Cells were incubated at 37° C. and 5% CO2. One day before imaging, cells were passed and plated on 8-well chambered coverglasses (Lab-Tek) at a density of 40,000 cells per mL (or 20,000 cells per well). Cells would reach 70-80% confluency before imaging. […] Samples of HEK293TN and NS1 cells for flow cytometry were prepared by passaging and seeding each well of a 6-well cluster culture dish (Cyto-One) with 300,000 cells one day before experiments. […] Stained cells were aspirated and serum-free DMEM added. Subsequently, a 10× concentrated FA solution was added to give a final concentration of 1.0 mM. 2.5 mM and 5 mM. After incubation cells with FA, the media was removed and replaced with serum-free DMEM. Finally, cells were trypsinized, pelleted via centrifugation, resuspended in phosphate-buffered saline (PBS) for flow cytometric analysis."}, "NS1 cells": {"test_system": "NS1 cells", "conditions": "37° C., 3 hrs", "method": "as §1, §3"}},
  "note": "Several values for one entry are separate records, joined by “and”; a condition that tells them apart may be missing. Identical values can stand only once. Like-named read-outs stand apart in the source and are kept apart here.",
  "data": [
    {"smiles": "C=CCC(NCc1ccc([N+](=O)[O-])cc1)c1cn(C)c2cc(C)c(C3=C4C=CC(=O)C=C4[Si](C)(C)c4c3cc3c5c4CCCN5CCC3)cc12", "note": "(centres unmarked) [FP1]", "values": [
      {"measurement": "Φ (quantum efficiency, ΦF)", "setting": "[1]", "value": "undetectable levels"},
      {"measurement": "ε", "setting": "[1]", "value": 29000, "unit": "M⁻¹ cm⁻¹"},
      {"measurement": "λabs", "setting": "[1]", "value": 620, "unit": "nm"},
      {"measurement": "λem", "setting": "[1]", "value": 649, "unit": "nm"},
      {"measurement": "fold increase in fluorescence intensity", "setting": "[2]; 1 μM FP1, 0.1 mM FA, PBS pH 7.4, 37° C.", "value": 3.9, "unit": "fold"},
      {"measurement": "fold fluorescence increase", "setting": "[2]; 1 μM FP1, 0.25 mM FA, PBS pH 7.4, 37° C., 3 hrs", "value": "ca. 7.0 fold"},
      {"measurement": "fold increase in fluorescence intensity", "setting": "[2]; 1 μM FP1, 0.5 mM FA, PBS pH 7.4, 37° C.", "value": 8.5, "unit": "fold"},
      {"measurement": "fold increase in fluorescence intensity", "setting": "[2]; 1 μM FP1, 1 mM FA, PBS pH 7.4, 37° C.", "value": "12.8 fold and 11.6 fold"},
      {"measurement": "lower limit of detection of FP1", "setting": "[2]; FA, after 3 hrs incubation at 37° C.", "value": 0.01, "unit": "mM"},
      {"measurement": "fold fluorescence increase", "setting": "[3]; 1 μM FP1, 1 mM acetaldehyde, 3 hrs", "value": 1.9, "unit": "fold"},
      {"measurement": "cross-reactivity with aldehyde containing species", "setting": "[3]; 1 μM FP1, 1 mM of the various analytes", "value": "only minimal cross-reactivity"},
      {"measurement": "change in fluorescence", "setting": "[3]; 1 mM hydrogen peroxide", "value": "no significant change in fluorescence"},
      {"measurement": "chemical stability in the presence of intracellular reductants", "setting": "[3]; cysteine, glutathione, hydrogen sulfide, 1 mM, 3 hrs", "value": "no aberrant reactivity"},
      {"measurement": "fold turn-on, median APC-A fluorescence intensity (flow cytometry)", "setting": "HEK293TN cells", "value": "~2.5", "unit": "fold"},
      {"measurement": "fluorescence turn-on (flow cytometry)", "setting": "NS1 cells; NS1, 0.25 mM FA", "value": 42, "unit": "%"},
      {"measurement": "fluorescence turn-on (flow cytometry)", "setting": "NS1 cells; NS1, 0.5 mM FA", "value": 50, "unit": "%"},
      {"measurement": "fold increase by flow cytometry", "setting": "NS1 cells; NS1, 5 mM FA", "value": 4.2, "unit": "fold"}
    ]}
  ]
}
